Reference: US20220105206A1, “SENSITIVITY ADVANCES IN ULTRASOUND SWITCHABLE FLUORESCENCE SYSTEMS AND TECHNIQUES” (Board of Regents, The University of Texas System, priority 2020, published 2022)

Key:
[1] = Excitation and emission spectra of LNPs (Example 5); format: physicochemical; settings: 530 nm excitation, 25° C.
Experimental: The hydrodynamic sizes of liposomes were measured with the DLS particle analyzer (NanoBrook 90PlusPALS, Brookhaven Instruments, USA). The incident angle of the 659 nm laser was 90 degrees. Samples were diluted with DI water until the count rate reaches 300-700 kcps and the temperature was set at 25° C. The excitation and emission spectra of LNPs were characterized via a spectrometer (Fluoromax-Plus-C, Horiba, Japan) using a 300 μL quartz cuvette (Hellma, Germany) with stir at 25° C. The excitation spectrum was scanned from 650-810 nm with an 830 nm LP emission filter and an emission recording wavelength at 850 nm. The emission spectrum was acquired using a 530 nm excitation light with a 550 nm LP emission filter (Semrock, USA) and recorded from 650-850 nm.

[2] = literature value; cited from earlier work
[3] = cited from earlier work

CC1(C)C(/C=C/C=C/C=C/C=C2\N(CCCCS(=O)(=O)O)c3ccc4ccccc4c3C2(C)C)=[N+](CCCCS(=O)(=O)[O-])c2ccc3ccccc3c21 [ICG, indocyanine green]
emission peak [1]: 809 nm
emission wavelength [2]: around 810 nm
maximum absorption wavelength [2]: around 785 nm
degradation of aqueous solutions ([3]; DI water and buffered saline): degraded relatively quickly by day 20
plasma half-life [3]: 2 to 4 min
